One assay concerns the target Cholinesterase (Equus caballus, UniProt P81908). In words: Inhibition of equine serum BuChE using ATCI as substrate preincubated for 30 mins followed by substrate addition measured after 5 mins by DTNB-based spectrophotometric analysis.
A further assay concerns the target Acetylcholinesterase (Electrophorus electricus, UniProt O42275). In words: Inhibition of electric eel AChE using ATCI as substrate preincubated for 30 mins followed by substrate addition measured after 5 mins by DTNB-based spectrophotometric analysis.
A short description of assay [1]: Selectivity index, ratio of IC50 for electric eel AChE to IC50 for equine serum BuChE.

The term IC50 denotes the concentration at which inhibition is half-maximal. A high value points to lower potency.

Molecules are shown by their SMILES.

Chain of Acetylcholinesterase (O42275 whole entry): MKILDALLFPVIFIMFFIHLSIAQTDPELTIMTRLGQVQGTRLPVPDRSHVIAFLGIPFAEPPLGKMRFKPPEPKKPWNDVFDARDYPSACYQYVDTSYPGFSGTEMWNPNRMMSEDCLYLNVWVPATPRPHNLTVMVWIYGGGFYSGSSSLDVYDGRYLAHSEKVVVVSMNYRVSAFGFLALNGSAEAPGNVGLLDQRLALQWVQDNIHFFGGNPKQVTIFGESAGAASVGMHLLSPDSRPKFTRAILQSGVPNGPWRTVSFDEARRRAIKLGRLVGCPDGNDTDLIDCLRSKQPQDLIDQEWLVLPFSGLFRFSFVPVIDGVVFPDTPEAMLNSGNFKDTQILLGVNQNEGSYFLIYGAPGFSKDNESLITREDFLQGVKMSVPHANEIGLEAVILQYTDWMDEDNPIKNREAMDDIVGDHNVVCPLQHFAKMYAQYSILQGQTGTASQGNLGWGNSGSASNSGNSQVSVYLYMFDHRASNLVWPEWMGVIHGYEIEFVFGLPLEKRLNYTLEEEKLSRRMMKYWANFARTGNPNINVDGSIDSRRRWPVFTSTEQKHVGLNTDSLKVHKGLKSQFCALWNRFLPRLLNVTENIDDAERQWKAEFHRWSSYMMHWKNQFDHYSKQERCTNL
Chain of Cholinesterase (P81908 whole entry): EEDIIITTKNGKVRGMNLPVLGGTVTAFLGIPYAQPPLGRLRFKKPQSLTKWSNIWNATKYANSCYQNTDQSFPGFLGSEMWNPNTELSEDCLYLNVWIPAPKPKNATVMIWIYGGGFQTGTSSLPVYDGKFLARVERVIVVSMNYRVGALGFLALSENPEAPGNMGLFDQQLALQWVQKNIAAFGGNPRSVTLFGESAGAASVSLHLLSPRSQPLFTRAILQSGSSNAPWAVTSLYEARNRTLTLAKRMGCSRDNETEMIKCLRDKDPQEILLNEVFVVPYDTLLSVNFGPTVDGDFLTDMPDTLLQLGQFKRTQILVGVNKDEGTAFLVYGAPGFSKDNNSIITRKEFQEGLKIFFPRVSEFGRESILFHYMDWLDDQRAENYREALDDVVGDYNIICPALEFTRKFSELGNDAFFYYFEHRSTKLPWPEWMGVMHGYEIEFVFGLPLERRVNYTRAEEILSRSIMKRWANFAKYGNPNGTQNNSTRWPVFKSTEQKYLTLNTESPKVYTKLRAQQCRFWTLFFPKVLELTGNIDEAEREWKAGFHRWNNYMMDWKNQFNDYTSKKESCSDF

`O[C@H]1[C@H]2c3cc4c(cc3CN3CCC(=C[C@@H]1O)[C@H]23)OCO4` [LYCORINE]: the IC50 against Cholinesterase was over 200 µM.
Turning to `CN1CC[C@@H]2C[C@H](O)[C@H]3OC(=O)c4c(cc5c(c4O)OCO5)[C@H]3[C@@H]21`, the figures for the IC50 against Acetylcholinesterase and at Cholinesterase were 114 µM and 67.3 µM, respectively. In addition, in assay [1], the Ratio IC50 stood at 1.69.
Regarding `CO[C@H]1C=C2[C@H]3C[N@@](Cc4cc5c(cc43)OCO5)[C@H]2C[C@@H]1O` [MONTANINE], the concentration for half-maximal inhibition (IC50) at Acetylcholinesterase and at Cholinesterase was over 200 µM in each case.
With `CO[C@H]1[C@H]2C(=CC[C@@H]1O)[C@H]1CN2Cc2cc3c(cc21)OCO3`, the IC50 on Acetylcholinesterase and against Cholinesterase was over 200 µM in each case.
On to `O[C@H]1C=C2[C@H]3CN(Cc4cc5c(cc43)OCO5)[C@H]2C[C@@H]1O`, for which the IC50 at Acetylcholinesterase and against Cholinesterase was over 200 µM each time.

Values taken from ChEMBL document CHEMBL3853276, “Alkaloids from Hippeastrum argentinum and Their Cholinesterase-Inhibitory Activities: An in Vitro and in Silico Study” (J Nat Prod, 2016).
